How the values were obtained:
[1] = LNP size and polydispersity index (PDI) by dynamic light scattering; type: physicochemical; conditions: LNP with cirRNA (SEQ ID NO: 1); for Size: in nm (unit assumed)
In short: (§1)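 Ribogreen fluorescence with and without Triton X-100 gave encapsulation as 100% − (intact/lysed) signal; DLS size, PDI and zeta potential measured on a Zetasizer. Particles: 50:10:38.5:1.5 lipid mix, luciferase circRNA or mRNA, lipid:nucleotide 15 or 6, microfluidic assembly at pH 4.5, PBS-dialyzed.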

Hep G2 cells [2] = assay: In vitro expression of firefly-luciferase, Hep G2; type: cell-based; conditions: cirRNA (SEQ ID NO: 1) LNPs; firefly-luciferase luminescence; Hep G2 cells
In short: (§2)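 Cells were transfected with firefly-luciferase-encoding RNA-LNPs at 100 ng/mL. After 72 hours they were washed and lysed, and luciferase activity in the lysates was read by luminometry.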

[3] = LNP zeta potential (Zetasizer); type: physicochemical; conditions: LNP with cirRNA (SEQ ID NO: 1)
In short: as §1

Hep G2 cells [4] = assay: In vitro toxicity (CellTiter-Glo cell viability), Hep G2; type: cell-based; conditions: cirRNA (SEQ ID NO: 1) LNPs; Hep G2 cells;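 note: percent of untreated cells luminescence signal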
In short: (§3)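 RNA-LNPs 1 μg/mL; 72 h post-transfection; CellTiter-Glo luminescence read-out; % viability calculated from signal.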

[5] = RNA encapsulation efficacy by Quant-IT Ribogreen kit; type: physicochemical; conditions: LNP with cirRNA (SEQ ID NO: 1)
In short: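 LNPs of ionizable lipid/DSPC/cholesterol/DMG-PEG 2000 (50:10:38.5:1.5) made by microfluidic mixing of luciferase circRNA or mRNA in pH 4.5 acetate with lipids in ethanol (3:1, 12 ml/min), ionizable lipid:nucleotide 15 or 6, then dialyzed against PBS. Size, PDI (DLS) and zeta potential on Zetasizer; encapsulation by Ribogreen ± Triton X-100.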

BALB/C mice = assay: In vivo expression, whole-body luminescence (IVIS); conditions: cirRNA (SEQ ID NO: 1) LNPs, BALB/C mice
Procedure: 6-8 week old, female BALB/C mice were injected with 0.05 mg*kg-1 of RNA-LNPs encoding for firefly-luciferase by intravenous injection. At 6 hours post injection, animals were intraperitoneally injected with 15 mg/ml of Luciferin substrate and whole-body luminescence was determined by a bioluminescent in vivo imaging system (IVIS).

RAW 264.7 cells [6] = assay: In vitro toxicity (CellTiter-Glo cell viability), RAW 264.7; type: cell-based; conditions: cirRNA (SEQ ID NO: 1) LNPs; RAW 264.7 cells;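 note: percent of untreated cells luminescence signal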
In short: as §3

RAW 264.7 cells [7] = assay: In vitro expression of firefly-luciferase, RAW 264.7; type: cell-based; conditions: cirRNA (SEQ ID NO: 1) LNPs; firefly-luciferase luminescence; RAW 264.7 cells
In short: as §2

PDI [1]	Size [1]	Zeta (mV) [3] [mV]	Encapsulation Efficiency % [5] [%]	Structure (SMILES)	In vitro Expression HepG2 (Hep G2 cells [2])	In vitro Viability HepG2 (Hep G2 cells [4]) [%]	In vivo Expression (Whole Body) (BALB/C mice)	In vitro Viability RAW (RAW 264.7 cells [6]) [%]	In vitro Expression RAW (RAW 264.7 cells [7])
0.2315	97.72	6.058	72	CCCCCCCCCCCOC(=O)CCCCCN(CCCCCCCC(=O)OC(CCCCCCCC)CCCCCCCC)CCOC(=O)NCCN(C)C [Lipid 158, heptadecan-9-yl 2-methyl-6-oxo-10-(6-oxo-6-(undecyloxy)hexyl)-7-oxa-2,5,10-triazaoctadecan-18-oate]	1.24E+06	64	1.62E+07	0	1.37E+04
0.1754	57.86	−5.631	84	CCCCCCCCCCCOC(=O)CCCCCN(CCCCCCCC(=O)OC(CCCCCCCC)CCCCCCCC)CCOC(=O)NCc1ncc[nH]1 [Lipid 159, heptadecan-9-yl 8-((2-((((1H-imidazol-2-yl)methyl)carbamoyl)oxy)ethyl)(6-oxo-6-(undecyloxy)hexyl)amino)octanoate]	8.41E+05	92	1.95E+07	90	4.41E+04
0.08727	58.97	−10.23	75	CCCCCCCCCCCOC(=O)CCCCCN(CCCCCCCC(=O)OC(CCCCCCCC)CCCCCCCC)CCOC(=O)NCCN1CCOCC1 [Lipid 161]	4.62E+04	95	1.88E+07	81	6.74E+03
0.3875	86.23	14.91	76	CCCCCCCCCCCOC(=O)CCCCCN(CCCCCCCC(=O)OC(CCCCCCCC)CCCCCCCC)CCOC(=O)NCCCN(C)C [Lipid 162]	4.27E+05	83	1.01E+06	86	3.76E+03
0.1586	61.87	−3.271	79	CCCCCCCCCCCOC(=O)CCCCCN(CCCCCCCC(=O)OC(CCCCCCCC)CCCCCCCC)CCOC(=O)NCCCn1ccnc1 [Lipid 163]	5.77E+04	92	7.96E+06	88	3.32E+03
0.2218	76.41	3.42	75	CCCCCCCCCCCOC(=O)CCCCCN(CCCCCCCC(=O)OC(CCCCCCCC)CCCCCCCC)CCOC(=O)NCCN1CCCC1 [Lipid 164]	3.92E+06	74	7.11E+07	86	9.56E+04
0.2013	71.24	4.157	78	CCCCCCCCCCC(CCCCCCCC)COC(=O)CCCCCN(CCCCCC(=O)OCC(CCCCCCCC)CCCCCCCCCC)CCOC(=O)NCCCN(C)C (stereo not drawn) [Lipid 166]	2.17E+07	22	6.43E+05	12	1.48E+06
0.0668	61.26	−3.412	82	CCCCCCCCCCC(CCCCCCCC)COC(=O)CCCCCN(CCCCCC(=O)OCC(CCCCCCCC)CCCCCCCCCC)CCOC(=O)NCCCn1ccnc1 (stereo not drawn) [Lipid 167]	8.85E+04	102	9.22E+06	90	2.79E+04
0.1297	55.9	−5.824	77	CCCCCCCCCCC(CCCCCCCC)COC(=O)CCCCCN(CCCCCC(=O)OCC(CCCCCCCC)CCCCCCCCCC)CCOC(=O)NCc1ncc[nH]1 (stereo not drawn) [Lipid 171]	3.04E+05	97	5.09E+07	88	2.44E+05
0.2521	67.53	1.36	83	CCCCCCCCCCC(CCCCCCCC)COC(=O)CCCCCN(CCCCCC(=O)OCC(CCCCCCCC)CCCCCCCCCC)CCOC(=O)NCCCN(CC)CC (stereo not drawn) [Lipid 172]	1.12E+07	41	2.14E+07	90	5.83E+05
0.3423	73.65	−0.5735	82	CCCCCCCCCCC(CCCCCCCC)COC(=O)CCCCCN(CCCCCC(=O)OCC(CCCCCCCC)CCCCCCCCCC)CCOC(=O)NCCN1CCN(C)CC1 (stereo not drawn) [Lipid 173]	3.32E+07	57	3.45E+07	90	9.48E+05
0.0911	57.29	−4.35	89	CCCCCCCCCCC(CCCCCCCC)COC(=O)CCCCCN(CCCCCC(=O)OCC(CCCCCCCC)CCCCCCCCCC)CCOC(=O)NCCN1CCOCC1 (stereo not drawn) [Lipid 174]	1.56E+05	89	5.15E+07	92	1.30E+04
0.1534	61.85	16.19	95	CCCCCCCCCC(=O)OCCCCCCCN(CCCCCCCOC(=O)CCCCCCCCC)CCOC(=O)NCCN1CCN(C)CC1 [Lipid 178]	6.17E+04	99	1.31E+06	92	1.31E+03
0.102	69.89	−1.137	88	CCCCC/C=C\CCOC(=O)CCCCCN(CCCCCCCCOC(=O)C(CCCCCC)CCCCCCCC)CCOC(=O)NCc1ncc[nH]1 (stereo not drawn) [Lipid 185]	9.12E+03	90	1.22E+08	85	5.29E+04
0.4618	122.7	14.31	90	CCCCC/C=C\CCOC(=O)CCCCCN(CCCCCCCCOC(=O)C(CCCCCC)CCCCCCCC)CCOC(=O)NCCCN(CC)CC (stereo not drawn) [Lipid 186]	1.51E+05	88	2.96E+06	0	2.82E+02

— patent US12691070B2, “Cationic lipids and preparation method thereof” (RiboX Therapeutics HK Limited, priority 2023, dated 2026)
